# Reference: ChEMBL document CHEMBL1128103, “Thromboxane modulating agents. 1. Design of 1-[(arylsulfonyl)amino] alkylindole derivatives as dual thromboxane synthase inhibitor/thromboxane receptor antagonists” (Bioorg Med Chem Lett, 1995)
# Target: T1, Thromboxane-A synthase (Homo sapiens, UniProt P24557)
# T1 sequence (P24557 whole entry): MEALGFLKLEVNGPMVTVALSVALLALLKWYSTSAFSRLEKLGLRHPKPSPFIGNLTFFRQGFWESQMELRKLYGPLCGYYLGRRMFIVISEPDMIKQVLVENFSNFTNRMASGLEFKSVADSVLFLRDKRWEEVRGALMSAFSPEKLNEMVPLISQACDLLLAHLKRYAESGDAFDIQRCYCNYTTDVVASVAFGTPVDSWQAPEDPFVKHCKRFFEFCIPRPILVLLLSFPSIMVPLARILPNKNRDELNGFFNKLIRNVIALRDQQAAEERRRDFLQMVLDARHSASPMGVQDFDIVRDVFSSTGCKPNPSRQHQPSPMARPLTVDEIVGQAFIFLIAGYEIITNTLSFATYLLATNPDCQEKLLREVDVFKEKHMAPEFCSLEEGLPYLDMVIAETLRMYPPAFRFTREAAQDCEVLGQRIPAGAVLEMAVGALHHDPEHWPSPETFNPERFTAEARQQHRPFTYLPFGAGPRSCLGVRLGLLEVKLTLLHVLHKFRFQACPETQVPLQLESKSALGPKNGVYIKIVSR
# Assay: Compound was tested for the ability to inhibit human platelets microsomal Thromboxane A2 synthase
# Conditions: not given
row,SMILES,IC50
1,Cc1c(Cn2ccnc2)n(CCNS(=O)(=O)c2ccc(F)cc2)c2ccc(CCC(=O)O)cc12,135 nM
2,Cc1[nH]c2ccc(CCC(=O)O)cc2c1Cc1ccncc1,22 nM
3,Cc1c(Cc2cccnc2)c2cc(CCC(=O)O)ccc2n1CCNS(=O)(=O)c1ccc(F)cc1,61 nM

# Other lines, results leading:
row,IC50,SMILES
1,39 nM,Cc1c(Cn2ccnc2)c2cc(CCC(=O)O)ccc2n1CCNS(=O)(=O)c1ccc(F)cc1
2,39 nM,Cc1c(Cn2ccnc2)n(CCCCNS(=O)(=O)c2ccc(F)cc2)c2ccc(C(=O)O)cc12
3,15 nM,Cc1c(Cn2ccnc2)n(CCCNS(=O)(=O)c2ccc(F)cc2)c2ccc(C(=O)O)cc12
4,20 nM,Cc1c(Cn2ccnc2)n(CCNS(=O)(=O)c2ccc(F)cc2)c2ccc(C(=O)O)cc12
5,78 nM,Cc1c(Cc2ccncc2)c2cc(CCC(=O)O)ccc2n1CCNS(=O)(=O)c1ccc(F)cc1

# Target: T2, Thromboxane A2 receptor (Rattus norvegicus, UniProt P34978)
# T2 sequence (P34978 whole entry): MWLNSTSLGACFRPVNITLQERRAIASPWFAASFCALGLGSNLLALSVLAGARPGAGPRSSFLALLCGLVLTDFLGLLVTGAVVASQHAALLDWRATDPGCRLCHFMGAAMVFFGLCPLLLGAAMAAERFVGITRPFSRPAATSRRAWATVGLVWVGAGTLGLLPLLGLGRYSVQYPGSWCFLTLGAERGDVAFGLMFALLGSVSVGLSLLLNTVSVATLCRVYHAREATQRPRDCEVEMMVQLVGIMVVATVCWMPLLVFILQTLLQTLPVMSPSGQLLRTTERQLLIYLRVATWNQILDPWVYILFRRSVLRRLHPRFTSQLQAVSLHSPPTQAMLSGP
# Assay: Compound was tested in vitro for Thromboxane A2 receptor antagonism by inhibiting contraction of rat aorta induced by the stable thromboxane agonist U-46,619
# Type: functional, tissue-based
# Conditions: read-out: pA2 (converted)
row,SMILES,Kb
1,Cc1c(Cn2ccnc2)n(CCNS(=O)(=O)c2ccc(F)cc2)c2ccc(CCC(=O)O)cc12,138 nM
2,Cc1c(Cc2cccnc2)c2cc(CCC(=O)O)ccc2n1CCNS(=O)(=O)c1ccc(F)cc1,0.692 nM
3,O=C(O)COc1ccc(CCNS(=O)(=O)c2ccccc2)cc1 [SULOTROBAN],81.3 nM

# The remaining lines, values ahead:
row,Kb,SMILES
1,1.58 nM,Cc1c(Cn2ccnc2)c2cc(CCC(=O)O)ccc2n1CCNS(=O)(=O)c1ccc(F)cc1
2,2.51 nM,Cc1c(C)n(CCNS(=O)(=O)c2ccc(F)cc2)c2ccc(CCC(=O)O)cc12
3,0.0741 nM,Cc1c(Cc2ccncc2)c2cc(CCC(=O)O)ccc2n1CCNS(=O)(=O)c1ccc(F)cc1

# Target: T2, Thromboxane A2 receptor
# Assay: Compound was tested in vitro for Thromboxane A2 receptor antagonism by inhibiting contraction of rat aorta induced by the stable thromboxane agonist U-46,619; […]
# Type: functional, tissue-based
# Conditions: read-out: pA2 (converted)
row,Kb,SMILES
1,> 1000 nM,Cc1c(Cn2ccnc2)n(CCCCNS(=O)(=O)c2ccc(F)cc2)c2ccc(C(=O)O)cc12
2,> 1000 nM,Cc1c(Cn2ccnc2)n(CCCNS(=O)(=O)c2ccc(F)cc2)c2ccc(C(=O)O)cc12
3,> 1000 nM,Cc1c(Cn2ccnc2)n(CCNS(=O)(=O)c2ccc(F)cc2)c2ccc(C(=O)O)cc12

# Target: T2, Thromboxane A2 receptor
# Assay: Compound was tested in vitro for thromboxane A2 receptor antagonism by inhibiting contraction of rat aorta induced by the stable thromboxane agonist U-46,619
# Type: functional, tissue-based
# Conditions: read-out: pA2 (converted)
row,Kb,SMILES
1,60.3 nM,Cc1[nH]c2ccc(CCC(=O)O)cc2c1Cc1ccncc1
2,7.59 nM,O=C(O)CCc1ccc2c(c1)c(Cc1ccncc1)cn2CCNS(=O)(=O)c1ccc(F)cc1

# Target: T3, Thromboxane-A synthase (Homo sapiens) (UniProt P24557)
# T3 sequence (whole entry): T1 sequence (P24557 whole entry)
# Assay: Compound was tested for the ability to inhibit human platelets microsomal Thromboxane A2 synthase at 1 uM concentration
# Conditions: not given
row,inhibition,SMILES
1,42%,O=C(O)CCc1ccc2c(c1)c(Cc1ccncc1)cn2CCNS(=O)(=O)c1ccc(F)cc1
